# Measured values: BigSolDB 2.1
compound,measurement,setting,value
C1N2CN3CN1CN(C2)C3,solubility (mole fraction),"in acetic acid, 304.52 K",0.245
same,solubility (mole fraction),"in acetic acid, 310.83 K",0.245
same,solubility (mole fraction),"in acetic acid, 317.35 K",0.246
same,solubility (mole fraction),"in acetic acid, 321.91 K",0.249
same,solubility (mole fraction),"in acetic acid, 327.65 K",0.25
same,solubility (mole fraction),"in acetic acid, 332.65 K",0.251
same,solubility (mole fraction),"in acetic acid, 337.15 K",0.256
same,solubility (mole fraction),"in ethanol, 288.19 K",0.0085
same,solubility (mole fraction),"in ethanol, 293.49 K",0.0096
same,solubility (mole fraction),"in ethanol, 298.43 K",0.0107
same,solubility (mole fraction),"in ethanol, 303.4 K",0.012
same,solubility (mole fraction),"in ethanol, 312.91 K",0.0148
same,solubility (mole fraction),"in methanol, 299.91 K",0.0234
same,solubility (mole fraction),"in methanol, 304.45 K",0.0251
same,solubility (mole fraction),"in methanol, 307.85 K",0.0264
same,solubility (mole fraction),"in methanol, 311.9 K",0.028
same,solubility (mole fraction),"in methanol, 315.95 K",0.0293
same,solubility (mole fraction),"in methanol, 319.63 K",0.0304
same,solubility (mole fraction),"in methanol, 323.65 K",0.032
same,solubility (mole fraction),"in methanol, 326.25 K",0.0335
same,solubility (mole fraction),"in methanol, 330.85 K",0.0353
same,solubility (mole fraction),"in water, 303.21 K",0.098
same,solubility (mole fraction),"in water, 307.4 K",0.0959
same,solubility (mole fraction),"in water, 312.18 K",0.0948
same,solubility (mole fraction),"in water, 317.05 K",0.0931
same,solubility (mole fraction),"in water, 321.86 K",0.0914
same,solubility (mole fraction),"in water, 326.15 K",0.0894
same,solubility (mole fraction),"in water, 330.45 K",0.0891
same,solubility (mole fraction),"in water, 335.42 K",0.0895
same,solubility (mole fraction),"in water, 340.35 K",0.0914
